Test results as given in PMC7970121, “Combination With Tomatidine Improves the Potency of Posaconazole Against Trypanosoma cruzi” (Frontiers in Cellular and Infection Microbiology, 2021).
Entries after “also recorded” stand apart in the source; their conditions may differ. Where a name gives a salt, the structure may show the parent alone. Read-outs that look alike come from different tables or passages of the source.

What was measured:
[1] = system: Trypanosoma cruzi intracellular amastigotes (Tulahuen strain in rat L6 myoblasts); assay: Activity on T. cruzi intracellular amastigotes in L6 cells (LacZ/CPRG, 96 h); format: cell-based; conditions: for EC50: read-out: Amastigotes (mean ± SD) EC50; for EC90: read-out: Amastigotes (mean ± SD) EC90
Procedure: (§1) L6 cells derived from rat skeletal myoblast (ATCC CRL-1458) were used as host cells for T. cruzi using trypomastigotes of Tulahuen C2C4 strain (DTU VI) expressing the β-galactosidase gene (LacZ) ([Buckner et al., 1996]). The cultures were sustained in RPMI-1640 supplemented with 10% inactivated fetal bovine serum (FBS) and […] at 5% CO2 and 37°C. Epimastigote T. cruzi (STIB 980 strain, DTU TcI) were cultivated at 28°C in liver infusion tryptose (LIT) medium supplemented with hemin (2 μg/ml) and 10% FBS and were used in log phase of growth. Bloodstream trypomastigotes (Y strain, DTU II) were isolated from Swiss Webster mice infected at the peak of parasitemia (≥ 2.5 × 10^6/ml), as reported ([Meirelles et al., 1986]).
Rat skeletal myoblasts (L6 cell lines) were seeded in 96-well plates (10^4 cells/well) in 100 μl RPMI 1640 medium supplemented with 10% fetal bovine serum (FBS) and 2 mM L-glutamine. The medium was removed after 24 h incubation and replaced by 100 μl of fresh medium containing 10^5 LacZ trypomastigotes (Tulahuen DTU VI). After 48 h, the medium was again removed and replaced with or without a serial of compound concentrations (eleven three-fold dilution steps). After 96 h of compound exposure, CPRG/Nonidet (50 μl) substrate was added and the reading performed after 2–6 h at 540 nm in Versamax microplate reader (Molecular Devices Cooperation, USA). Growth was expressed as percentage of the values of solvent-treated controls. The graphics program Softmax Pro (Molecular Devices) was used to construct dose–response curves and calculate EC50 values. Bz was used as reference drug.

[2] = system: Trypanosoma cruzi epimastigotes (STIB 980 strain); assay: Activity on T. cruzi epimastigotes (resazurin, 72 h); format: cell-based
Procedure: as §1
Epimastigotes (10^7 parasites/ml) were incubated for 72 h at 28°C with serially diluted compound concentrations (eleven 1:3 dilutions) in supplemented LIT medium. Parasite viability and motility were evaluated by direct observation by light microscopy and fluorometric assays performed with resazurin (12.5 mg resazurin dissolved in 100 ml distilled water). After 2–4 h of incubation with resazurin solution, plates were read in Spectramax Gemini XS microplate fluorometer (Molecular Devices Cooperation, USA) using wavelengths of 536 nm (excitation) and 588 nm (emission) ([Räz et al., 1997]). Growth was expressed as percentage of the values of solvent-treated controls. The graphics program Softmax Pro (Molecular Devices) was used to construct dose–response curves and calculate EC50 (half maximal inhibitory concentration) values. Bz was used as reference drug.

[3] = Cytotoxicity against L6 cells (resazurin, 72 h); format: cell-based, rat
Procedure: Rat skeletal myoblasts (L6 cell lines) were seeded in 96-well plates (4 × 10^4 cells/well) in 100 μl RPMI 1640 medium supplemented with 10% fetal bovine serum (FBS) and 2 mM L-glutamine. After 24 h incubation the medium was replaced with 100 μl of fresh medium with or without a serial dilution of compound concentrations (eleven three-fold dilution steps). After 72 h of compound exposure, fluorescent dye resazurin (10 μl, 12.5 mg resazurin dissolved in 100 ml water) was added for 2 h and the readings performed at Spectramax Gemini XS microplate fluorometer (Molecular Devices Cooperation, USA), with excitation wavelength of 536 nm and an emission wavelength of 588 nm. Growth was expressed as percentage of the values of solvent-treated controls. The graphics program Softmax Pro (Molecular Devices) was used to construct dose–response curves and calculate EC50 values. Podophyllotoxin (a microtubule destabilizing agent) was used as positive control.

[4] = system: T. cruzi (Y strain); assay: Mouse model of acute T. cruzi infection: parasitemia and mortality; format: in vivo, Trypanosoma cruzi
Procedure: Male Swiss Webster mice (18–23 g) were obtained from the Instituto de Ciência e Tecnologia em Biomodelos (ICTB/Fiocruz) (Rio de Janeiro, Rio de Janeiro, Brazil). Five mice were housed per cage, kept in a conventional room at 20–24°C under 12 h/12 h light/dark cycle. Sterilized water and chow were provided ad libitum. The animals were acclimated for 7 days before being used in the different assays. All procedures were done following Biosafety Guidelines in compliance with the Fiocruz and all animal procedure approved by the Committee of Ethics for the Use of Animals (CEUA L-38/17).
Male mice (n = 5 per group) were infected i.p. with 10^4 bloodstream trypomastigotes of T. cruzi (Y strain). Only mice with positive parasitemia at day 5 post infection (dpi) were included in the studies. […] Uninfected and T. cruzi-infected mice treated only with vehicle (aqueous solution of 0.5% carboxymethylcellulose) were age-matched and housed under identical conditions and used as controls ([Simões-Silva et al., 2017]). All compound formulations were freshly prepared before every administration.
All animals were individually checked for circulating blood parasitemia by counting the number of parasites in 5 µl of blood taken from the tail vein and investigated under the microscope ([Brener, 1962]). Parasitemia was checked till 30 dpi, while mortality was checked daily up to 30 days after the administration of the last dose. Mortality was given as percentage of cumulative mortality (CM) ([Simões-Silva et al., 2017]).

[5] = Toxicity in female mice after p.o. administration; format: in vivo; conditions: up to 200 mpk (data not shown)
[6] = system: T. cruzi epimastigote cultures; set-up: method as in Chataing et al., 1998; conditions: after four days of incubation; ref Chataing et al., 1998; read-out: Concentration inhibiting growth of epimastigote cultures to 50%; cited from earlier work
[7] = EC50 on mammalian L6 cells versus EC50 on intracellular amastigotes
[8] = Trypanosoma cruzi, TULAHUEN, L6, 96 h, Tulahuen strain in rat L6 myoblasts, 96 h, n = 3
[9] = Trypanosoma cruzi, Tulahuen strain in rat L6 myoblasts, 96 h, n = 3
[10] = Tulahuen strain in rat L6 myoblasts, 96 h, n = 3
[11] = STIB980, STIB 980 strain, 72 h, n = 3, read-out: Epimastigotes (mean ± SD) EC50
[12] = STIB980, STIB 980 strain, 72 h, n = 3, read-out: Epimastigotes (mean ± SD) EC90
[13] = L6 rat skeletal myoblast cells, rat L6 myoblasts, 72 h, n = 3, read-out: L6 cells (mean ± SD) EC50
[14] = rat L6 myoblasts, 72 h, n = 3, read-out: L6 cells (mean ± SD) EC50
[15] = TH alone, all tested doses (up to 5 mpk) p.o., 10 days, mice
[16] = Trypanosoma cruzi, TULAHUEN, L6, 96 h

Compound	SI (Selectivity Index) [1, 7]	EC50 [1, 8] [µM]	EC90 [1, 9] [µM]	EC50 [2, 11] [µM]	EC90 [2, 12] [µM]	EC50 at 72 h ([3]; rat) [µM]	other results
CCCCCCCCc1ccc(CCC(N)(CO)CO)cc1 [FTY720]	0.5	≤ 1	1.84 ± 1.3	7.55 ± 0.4	11.6 ± 0.3	0.39 ± 0.1	EC50 [1, 10]: 0.81 ± 0.5 µM
Cc1cc2ncc(NC(=O)Nc3ccc(F)cc3F)c(-c3ccccc3Cl)c2cc1C [TMP-153]	1.4	–	3.9 ± 2.1	106 ± 27	> 228	0.12 ± 0.03	–
C1CN2CCC1CC2 [Quinuclidine hydrochloride, Quinuclidine]	–	478 ± 174	> 677	> 677	> 677	–	SI (Selectivity Index) [1]: >1.4; EC50 at 72 h [3, 13]: > 677 µM
CCCCCCC(=O)CCCCCC/C=C/C[C@@H](O)[C@H](O)[C@@](N)(CO)C(=O)O [Myriocin]	>1.9	130 ± 34	231 ± 25	> 249	> 249	–	EC50 at 72 h [3, 14]: > 249 µM
CCCCCCCCc1ccc(CCC(N)(CO)COP(=O)(O)O)cc1 (stereo not shown) [FTY720 Phosphate, FTY720-P]	1.4	93.8 ± 3.3	168 ± 25	> 258	> 258	127 ± 22	–
S=C(S)OC1CC2CC1C1CCCC21 (stereo not shown) [D609 (potassium salt), D609]	–	99.4 ± 17.6	198 ± 32	154 ± 32	> 375	–	SI (Selectivity Index) [1]: 2.5; EC50 at 72 h [3, 13]: 247 ± 20 µM
OCC1C(O)C(O)C(O)CN1CCCCCOCC12CC3CC(CC(C3)C1)C2 (stereo not shown) [AMP-Deoxy nojirimycin, AMP-Deoxynojirimycin]	1.2	34.8 ± 15.1	66.6 ± 15.4	158 ± 5.9	237 ± 2	40.4 ± 10.9	–
CC[C@@H]([C@H](C)O)n1ncn(-c2ccc(N3CCN(c4ccc(OC[C@@H]5CO[C@@](Cn6cncn6)(c6ccc(F)cc6F)C5)cc4)CC3)cc2)c1=O [Posaconazole]	>700	0.002 ± 0.001	0.016 ± 0.005	> 14.2	> 14.2	> 1.42	Decrease of the parasitemia peak ([4]; Posa 1.25 mpk (suboptimal dose) p.o., 10 days (5-14 dpi), mice): about 80%; Animal survival ([4]; Posa 1.25 mpk p.o., 10 days (5-14 dpi)): 20%; Survival of mice ([4]; Posa 10 mpk p.o., 10 days (5-14 dpi)): 40%; Effect on parasitemia on the peak (8 dpi) ([4]; Posa 10 mpk p.o., 10 days (5-14 dpi), mice): suppressed parasitemia on the peak; Signs of toxicity [5]: did not show any signs of toxicity
NC1CN2CCC1CC2 (stereo not shown) [3-Amino quinuclidine dihydrochloride, 3-Amino quinuclidine]	>1.8	268 ± 10	485 ± 28	> 502	> 502	> 502	–
CCCCCCCCCC(=O)NC(CN1CCOCC1)C(O)c1ccccc1 (stereo not shown) [PDMP (hydrochloride), PDMP]	–	12.5 ± 2.9	24.6 ± 9	47.9 ± 9.4	88.7 ± 18	–	SI (Selectivity Index) [1]: 2.7; EC50 at 72 h [3, 13]: 33.5 ± 3.1 µM
CN(C)CCC=C1c2ccccc2CCc2ccccc21 [Amitriptyline (hydrochloride), Amitriptyline]	1.4	12.2 ± 3.6	20.9 ± 3	59.9 ± 5.4	96.8 ± 3.3	–	EC50 at 72 h [3, 14]: 17.2 ± 1.2 µM
C=CCN(C)CCCCCCOc1ccc(C(=O)c2ccc(Br)cc2)c(F)c1 [Ro48-8071]	12	–	2.5 ± 1.9	11.6 ± 6.1	29.4 ± 16.2	5.7 ± 2.4	EC50 ([1]; Tulahuen strain in rat L6 myoblasts, 96 h, n = 3, listed as RO48-8071): ≤ 1 µM; EC50 [1, 10]: 0.47 ± 0.09 µM
C[C@H]1CC[C@]2(NC1)O[C@H]1C[C@H]3[C@@H]4CC[C@H]5C[C@@H](O)CC[C@]5(C)[C@H]4CC[C@]3(C)[C@H]1[C@@H]2C [Tomatidine (hydrochloride), Tomatidine]	115	≤ 1	1.8 ± 0.2	192 ± 8.1	> 221	–	Maximum reduction in blood parasitemia on the peak [4, 15]: ≤ 28%; Protection against mortality induced by the infection [4, 15]: all animals died by 20 dpi; Antiparasitic activity in vivo ([4]; TH alone, doses 0.5 to 5 mg/kg, acute mouse model, listed as TH): lack of antiparasitic activity; also recorded: did not present antiparasitic activity; EC50 [1, 10]: 0.78 ± 0.2 µM; EC50 [6]: 5.7 µM; EC50 at 72 h [3, 14]: 89.5 ± 26.7 µM; Signs of toxicity [5]: did not show any signs of toxicity
CCCCC(C)C(OC(=O)CC(CC(=O)O)C(=O)O)C(CC(C)CC(O)CCCCC(O)CC(O)C(C)N)OC(=O)CC(CC(=O)O)C(=O)O (stereo not shown) [Fumonisin B1]	>1.8	–	–	–	–	–	EC50 [1, 16]: 50.8 ± 5.7 µM; EC90 [1, 16]: 84 ± 9.1 µM; EC50 ([2]; STIB980, 72 h, read-out: Epimastigotes (mean ± SD) EC50): > 92 µM; EC90 ([2]; STIB980, 72 h, read-out: Epimastigotes (mean ± SD) EC90): > 92 µM; EC50 at 72 h [3, 14]: > 92 µM
O=C(/C=C/c1ccc(/C=C/C(=O)Nc2ccc(C3=NCCN3)cc2)cc1)Nc1ccc(C2=NCCN2)cc1 [GW4869 (hydrochloride hydrate), GW4869]	>1.7	106 ± 44	> 173	> 173	> 173	–	EC50 at 72 h [3, 14]: > 173 µM
O=C(Cn1ccnc1[N+](=O)[O-])NCc1ccccc1 [Benznidazole]	>172	2.2	6.61 ± 2.5	13.9 ± 2.2	101 ± 18	> 384	EC50 [1, 10]: 2.22 ± 0.98 µM
CC(C)(Oc1ccc(CCNC(=O)c2ccc(Cl)cc2)cc1)C(=O)O [Bezafibrate]	–	132 ± 38.6	226 ± 65	> 276	> 276	–	SI (Selectivity Index) [1]: >2.1; EC50 at 72 h [3, 13]: > 276 µM
